Experimental findings from patent publication US6462069B2, “Compounds, pharmaceutical compositions, and methods for inhibiting protein kinases” (Agouron Pharmaceuticals, Inc., priority 2000, dated 2002) are described below.

Common to all, as to assay type: biochemical
Assay [1] concerns the target T1, full-length human CHK1 (FL-CHK1) (Homo sapiens, UniProt O14757).
T1 construct: C-terminally His-tagged full-length human CHK1 (FL-CHK1); made in house; host or cells: baculovirus/insect cell system
T1 sequence (O14757 1-476): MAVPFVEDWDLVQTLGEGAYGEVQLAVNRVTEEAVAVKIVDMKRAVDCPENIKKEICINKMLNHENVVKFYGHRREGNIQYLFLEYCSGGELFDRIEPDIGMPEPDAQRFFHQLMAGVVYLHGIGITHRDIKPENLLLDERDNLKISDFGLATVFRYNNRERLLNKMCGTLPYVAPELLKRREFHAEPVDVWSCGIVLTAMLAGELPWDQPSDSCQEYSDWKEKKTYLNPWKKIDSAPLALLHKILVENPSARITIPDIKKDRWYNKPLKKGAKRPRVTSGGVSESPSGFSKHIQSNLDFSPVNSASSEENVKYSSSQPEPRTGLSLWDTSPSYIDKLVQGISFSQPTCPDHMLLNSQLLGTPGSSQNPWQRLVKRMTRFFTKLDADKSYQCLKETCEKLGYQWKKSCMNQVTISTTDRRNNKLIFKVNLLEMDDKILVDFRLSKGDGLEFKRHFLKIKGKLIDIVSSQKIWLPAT
The experiment in a line: CHK1 assay (coupled spectrophotometric). From the text: C-terminally His-tagged full-length human CHK1 (FL-CHK1) was expressed using the baculovirus/insect cell system. It contains 6 histidine residues (6×His-tag) at the C-terminus of the 476 amino acid human CHK1. The protein was purified by conventional chromatographic techniques.
The production of ADP from ATP that accompanies phosphoryl transfer to the synthetic substrate peptide Syntide-2 ([…]) was coupled to oxidation of NADH using phosphoenolpyruvate (PEP) through the actions of pyruvate kinase (PK) and lactic dehydrogenase (LDH). The oxidation of NADH was monitored by following the decrease of absorbance at 340 nm (∈340=6.22 cm^−1 mM^−1) using a HP8452 spectrophotometer. Typical reaction solutions contained: […] PEP; 0.15 mM NADH; 28 units of LDH/ml; 16 units of PK/ml; 3 mM DTT; 0.125 mM Syntide-2: 0.15 mM ATP; 25 mM MgCI2 in 50 mM TRIS, pH 7.5; and 400 mM NaCl. Assays were initiated with 10 nM of FL-CHK1. Ki values were determined by measuring initial enzyme activity in the presence of varying concentrations of test compounds. The data were analyzed using Enzyme Kinetic and Kaleidagraph software.

A further assay concerns the target T2, CDK2/cyclin A complex (Homo sapiens, UniProt P24941).
T2 construct: made in house; host or cells: CDK2: insect cells (baculovirus); cyclin A: E. coli
As to the kind of experiment: Inhibition of CDK2/Cyclin A retinoblastoma kinase activity. Conditions: for Ki: apparent Ki. The method, then: (§1) Cyclin-dependent kinase activity was measured by quantifying the enzyme-catalyzed, time-dependent incorporation of radioactive phosphate from [^32P]ATP or [^33P]ATP into a protein substrate. Unless noted otherwise, assays were performed in 96-well plates in a total volume of 50 μL, in the presence of 10 mM HEPES (N-[2-hydroxyethyl]piperazine-N′-[2-ethanesulfonic acid]) (pH 7.4). 10 mM MgCI2, 25 μM adenosine triphosphate (ATP), 1 mg/mL ovalbumin, 5 μg/mL leupeptin, 1 mM dithiothreitol, 10 mM beta-glycerophosphate, 0.1 mM sodium vanadate, 1 mM sodium fluoride, 2.5 mM ethylene glycol-bis(β-aminoethyl ethKer)-N,N,N′N′-tetraacetic acid (EGTA), 2% (v/v) dimethylsulfoxide, and 0.03-0.4 μCi [^32/33P]ATP per reaction. Reactions were initiated with enzyme, incubated at 30° C. and terminated after 20 minutes by the addition ofethylenediaminetetraacetic acid (EDTA) to 250 mM. The phosphorylated substrate was then captured on a nitrocellulose or phosphocellulose membrane using a 96-well filtration manifold, and unincorporated radioactivity was removed by repeated washing with 0.85% phosphoric acid. Radioactivity was quantified by exposing the dried membranes to a phosphorimager.
(§2) Apparent Ki values were measured by assaying enzyme activity in the presence of different inhibitor compound concentrations and subtracting the background radioactivity measured in the absence of enzyme. Inhibition data were fit to an equation for competitive inhibition using Kaleidagraph (Synergy Software), or were fit to an equation for competitive tight-binding inhibition using the software KineTic (BioKin, Ltd.).
CDK2 was purified using published methodology (Rosenblatt et al., “Purification and Crystallization of Human Cyclin-dependent Kinase 2,” J. Mol. Biol., vol. 230, pp. 1317-1319 (1993)) from insect cells that had been infected with a baculovirus expression vector. […] Ki values were measured as described above.

The target in a further assay is T3, CDK4/cyclin D3 complex (Homo sapiens, UniProt P11802).
T3 construct: made in house; host or cells: insect cells co-infected with baculovirus expression vectors
T3 sequence (P11802 whole entry): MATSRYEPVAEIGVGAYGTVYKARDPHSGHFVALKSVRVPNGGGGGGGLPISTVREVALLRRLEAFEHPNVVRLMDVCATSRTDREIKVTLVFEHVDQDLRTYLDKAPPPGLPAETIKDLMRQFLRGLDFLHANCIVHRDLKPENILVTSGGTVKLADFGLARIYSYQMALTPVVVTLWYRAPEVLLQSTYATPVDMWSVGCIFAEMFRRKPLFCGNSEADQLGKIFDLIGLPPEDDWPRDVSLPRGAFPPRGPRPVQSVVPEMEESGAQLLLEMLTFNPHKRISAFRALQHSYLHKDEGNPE
T3 sequence (P30281 whole entry partner): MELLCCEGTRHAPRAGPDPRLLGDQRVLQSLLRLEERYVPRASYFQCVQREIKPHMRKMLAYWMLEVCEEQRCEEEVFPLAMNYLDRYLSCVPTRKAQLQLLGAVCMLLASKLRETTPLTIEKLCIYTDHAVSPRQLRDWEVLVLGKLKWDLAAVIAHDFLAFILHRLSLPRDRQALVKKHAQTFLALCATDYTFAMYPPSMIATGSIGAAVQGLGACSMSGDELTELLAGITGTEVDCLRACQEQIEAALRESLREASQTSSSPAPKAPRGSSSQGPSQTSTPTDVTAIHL
As to the kind of experiment: Inhibition of CDK4/Cyclin D retinoblastoma kinase activity. Conditions: for Ki: apparent Ki. Here is the method: as §1, §2
A complex of human CDK4 and cyclin D3, or a complex of human CDK4 and genetically truncated (1-264) cyclin D3, was purified using traditional biochemical chromatographic techniques from insect cells that had been co-infected with the corresponding baculovirus expression vectors ((see e.g., Meijer and Kim, “Chemical Inhibitors of Cyclin-Dependent Kinases,” Methods in Enzymol,. vol. 283, pp. 113-128 (1997)). The enzyme complex (5 or 50 nM) was assayed with 0.3-0.5 μg of purified recombinant retinoblastoma protein fragment (Rb) as a substrate. The engineered Rb fragment (residues 386-928 of the native retinoblastoma protein; 62.3 kDa) contains the majority of the phosphorylation sites found in the native 106-kDa protein, as well as a tag of six histidine residues for ease of purification. Phosphorylated Rb substrate was captured by microfiltration on a nitrocellulose membrane and quantified using a phosphorimager as described above. For measurement of tight-binding inhibitors, the enzyme complex concentration was lowered to 5 nM, and the assay duration was extended to 60 minutes, during which the time-dependence of product formation was linear.

As for `NS(=O)(=O)c1ccc(Nc2cc(-c3c[nH]c4ccccc34)[nH]n2)cc1` [Compound X, 4-[5-(1H-Indol-3-yl)-1H-pyrazol-3-ylamino]-Benzenesulfonamide], the Ki came to 1800 nM in assay [1], 0.39 µM at CDK2/cyclin A complex and 12 µM on CDK4/cyclin D3 complex.

In the case of `COc1cccc(-c2cccc3c(-c4cc(Nc5ccc(S(N)(=O)=O)cc5)n[nH]4)csc23)c1` [Compound Q, 4-{5-[7-(3-Methoxy-phenyl)-benzo[b]thiophen-3-yl]-1H-pyrazol-3-ylamino]-benzenesulfonamide], the inhibition at 5 µM worked out at 21% on CDK2/cyclin A complex (at 5 μM, read-out: Percent Inhibition CDK2/A) and 13% at CDK4/cyclin D3 complex (at 5 μM, read-out: Percent Inhibition CDK4/D).

For `Oc1ccc(Nc2cc(-c3csc4ccccc34)[nH]n2)cc1` [Compound L, 4-(Benzo[b]thiophen-3-yl-1H-pyrazol-3-ylamino)-phenol], the Ki on CDK2/cyclin A complex is 2 µM; at CDK4/cyclin D3 complex it was 5.3 µM.

As for `COc1ccc(Nc2cc(-c3csc4ccccc34)[nH]n2)cc1` [Compound K, (5-Benzo[b]thiophen-3-yl-1H-pyrazol-3-yl)-4-(methoxy-phenyl)-amine], the Ki at CDK2/cyclin A complex was found to be 6.3 µM; at CDK4/cyclin D3 complex it was 4.7 µM.

With `c1ccc(Nc2cc(-c3c[nH]c4ccccc34)[nH]n2)cc1` [Compound J, [5-(1H-Indol-3-yl)-1H-pyrazol-3-yl]-phenyl-amine], the values for the Ki (in assay [1]; on CDK2/cyclin A complex; on CDK4/cyclin D3 complex) were 18000 nM, 15 µM and 12 µM, respectively.

For the molecule `NS(=O)(=O)c1ccc(Nc2cc(-c3csc4c(-c5ccc(O)cc5)cccc34)[nH]n2)cc1` [Compound T, 4-{5-[7-(4-Hydroxy-phenyl)-benzo[b]thiophen-3-yl]-1H-pyrazol-3-ylamino]-benzenesulfonamide], the Ki worked out at 3.2 µM at CDK2/cyclin A complex and 2.1 µM at CDK4/cyclin D3 complex.

Regarding `c1ccc(Nc2cc(-c3cscc3Sc3ccccc3)[nH]n2)cc1` [Compound I, Phenyl-[5-(4-phenylsulfanyl-thiophene-3-yl)-1H-pyrazol-3-yl]-amine], on CDK4/cyclin D3 complex, the Ki worked out at 4.7 µM.

Turning to `COc1cccc(Nc2cc(-c3csc4ccccc34)[nH]n2)c1` [Compound M], the Ki on CDK2/cyclin A complex stood at 21 µM; at CDK4/cyclin D3 complex it was 4.1 µM.

As to `C1=C(c2cscc2-c2cc(Nc3ccccc3)n[nH]2)CCCC1` [Compound G, [5-(4-Cyclohex-1-enyl-thiophen-3-yl)-1H-pyrazol-3-yl]-phenyl-amine], the Ki on CDK2/cyclin A complex and at CDK4/cyclin D3 complex was 10 µM throughout.

On to `COc1ccc2c(-c3cc(Nc4ccc(S(N)(=O)=O)cc4)n[nH]3)csc2c1` [Compound V, 4-[5-(6-Methoxy-benzo[b]Thiophen-3-yl)-1H-pyrazol-3-ylamino]-Benzenesulfonamide], for which the results for the Ki on CDK2/cyclin A complex and at CDK4/cyclin D3 complex were 0.27 µM and 12 µM, respectively.

Regarding `c1ccc(Nc2cc(-c3cscc3C3CCCCC3)[nH]n2)cc1` [Compound H, [5-(4-Cyclohexyl-thiophen-3-yl)-1H-pyrazol-3-yl]-phenyl-amine], the Ki on CDK2/cyclin A complex and at CDK4/cyclin D3 complex was 3 µM in each case.

For the molecule `NS(=O)(=O)c1ccc(Nc2cc(-c3csc4ccc(Br)cc34)[nH]n2)cc1` [Compound U, {5-[3-(5-Bromo)-benzo[b]Thiophenyl]-1-H-pyrazol-3-yl}-phenylamine-4-Sulfonamide], the Ki was 0.08 µM at CDK2/cyclin A complex and 2.3 µM at CDK4/cyclin D3 complex.

Turning to `c1ccc(Nc2cc(-c3cccnc3)[nH]n2)cc1` [Compound C], the Ki in assay [1] is 1500 nM; at CDK2/cyclin A complex, 61 µM; at CDK4/cyclin D3 complex it was 59 µM.

With `c1ccc(Nc2n[nH]c3c2-c2ccccc2C3)cc1` [Compound D, (1,8-Dihydro-indeno[2,1-c]pyrazol-3-yl)-phenyl-amine], the Ki at CDK2/cyclin A complex was 25 µM; on CDK4/cyclin D3 complex, 7.4 µM.

Consider `NS(=O)(=O)c1ccc(Nc2cc(-c3csc4c(Br)cccc34)[nH]n2)cc1` [Compound P, 4-[5-(7-Bromo-benzo[b]thiophen-3-yl)-1H-pyrazol-3-ylamino]-benzenesulfonamide], for which the Ki was 0.11 µM on CDK2/cyclin A complex and 2.1 µM at CDK4/cyclin D3 complex.

For the molecule `Oc1cccc(Nc2cc(-c3csc4ccccc34)[nH]n2)c1` [Compound N, 3-(Benzo[b]thiophen-3-yl-1H-pyrazol-3-ylamino)-phenol], the results for the Ki on CDK2/cyclin A complex and on CDK4/cyclin D3 complex were 2.4 µM and 4.9 µM, respectively.

Turning to `C(=C\c1cscc1-c1cc(Nc2ccccc2)n[nH]1)/c1ccccc1` [Compound F, Phenyl-[5-(4-trans-styryl-thiophen-3-yl]-1H-pyrazol-3-yl]-amine], the inhibition at 10 µM is 37% at CDK2/cyclin A complex (at 10 μM, read-out: Percent Inhibition CDK2/A) and 25% at CDK4/cyclin D3 complex (at 10 μM, read-out: Percent Inhibition CDK4/D).

As for `Brc1cscc1-c1cc(Nc2ccccc2)n[nH]1` [Compound E, [5-(4-Bromo-thiophen-3-yl)-1H-pyrazol-3-yl]1-phenyl-amine], the values for the Ki on CDK2/cyclin A complex and at CDK4/cyclin D3 complex were 22 µM and 9.7 µM, respectively.

Turning to `NS(=O)(=O)c1ccc(Nc2cc(-c3csc4c(-c5cccc(O)c5)cccc34)[nH]n2)cc1` [Compound R, 4-{5-[7-(3-Hydroxy-phenyl)-benzo[b]thiophen-3-yl]-1H pyrazol-3-ylamino]-benzenesulfonamide], the inhibition at 10 µM in assay [1] (at 10 μM, read-out: Percent Inhibition CHK1) was determined as 8%. The values for the Ki on CDK2/cyclin A complex and on CDK4/cyclin D3 complex were 2.7 µM and 3.3 µM, respectively.
